Calls of active or inactive are those of the source.
Legend:
[1] = molecular target: Cytoplasmic tyrosine-protein kinase BMX (Homo sapiens) (UniProt P51813); conditions: Compound concentration 1000.0 nM
[2] = system: Epidermal growth factor receptor (Homo sapiens), P00533 [UNDEFINED MUTATION]; conditions: Compound concentration 1000.0 nM
[3] = molecular target: Serine/threonine-protein kinase PLK2 (Homo sapiens) (UniProt Q9NYY3); conditions: Compound concentration 1000.0 nM
[4] = molecular target: Ribosomal protein S6 kinase alpha-5 (Homo sapiens) (UniProt O75582); conditions: Compound concentration 1000.0 nM
[5] = system: Serine/threonine-protein kinase B-raf (Homo sapiens), P15056 [V600E]; conditions: Compound concentration 1000.0 nM
[6] = molecular target: Phosphorylase b kinase gamma catalytic chain, skeletal muscle/heart isoform (Homo sapiens) (UniProt Q16816); conditions: Compound concentration 1000.0 nM
[7] = molecular target: Serine/threonine-protein kinase tousled-like 2 (Homo sapiens) (UniProt Q86UE8); conditions: Compound concentration 1000.0 nM
[8] = molecular target: Serine/threonine-protein kinase LATS2 (Homo sapiens) (UniProt Q9NRM7); conditions: Compound concentration 1000.0 nM
[9] = molecular target: Alpha-2B adrenergic receptor (Homo sapiens) (UniProt P18089); conditions: Compound concentration 10.0 uM
[10] = molecular target: Receptor tyrosine-protein kinase erbB-2 (Homo sapiens) (UniProt P04626); conditions: Compound concentration 1000.0 nM
[11] = molecular target: Serine/threonine-protein kinase Nek3 (Homo sapiens) (UniProt P51956); conditions: Compound concentration 1000.0 nM
[12] = molecular target: Epidermal growth factor receptor (Homo sapiens) (UniProt P00533); conditions: Compound concentration 1000.0 nM
[13] = molecular target: Serine/threonine-protein kinase Nek4 (Homo sapiens) (UniProt P51957); conditions: Compound concentration 1000.0 nM
[14] = molecular target: Mast/stem cell growth factor receptor Kit (Homo sapiens) (UniProt P10721); conditions: Compound concentration 1000.0 nM
[15] = molecular target: Vascular endothelial growth factor receptor 1 (Homo sapiens) (UniProt P17948); conditions: Compound concentration 1000.0 nM
[16] = molecular target: Serine/threonine-protein kinase PRP4 homolog (Homo sapiens) (UniProt Q13523); conditions: Compound concentration 1000.0 nM
[17] = system: Proto-oncogene tyrosine-protein kinase receptor Ret (Homo sapiens), P07949 [M918T]; conditions: Compound concentration 1000.0 nM
[18] = molecular target: Mitogen-activated protein kinase 1 (Homo sapiens) (UniProt P28482); conditions: Compound concentration 1000.0 nM
[19] = molecular target: Serine/threonine-protein kinase 3 (Homo sapiens) (UniProt Q13188); conditions: Compound concentration 1000.0 nM
[20] = molecular target: Serine/threonine-protein kinase PAK 2 (Homo sapiens) (UniProt Q13177); conditions: Compound concentration 1000.0 nM
[21] = molecular target: Insulin receptor (Homo sapiens) (UniProt P06213); conditions: Compound concentration 1000.0 nM
[22] = molecular target: Epithelial discoidin domain-containing receptor 1 (Homo sapiens) (UniProt Q08345); conditions: Compound concentration 1000.0 nM
[23] = molecular target: Citron Rho-interacting kinase (Homo sapiens) (UniProt O14578); conditions: Compound concentration 1000.0 nM
[24] = molecular target: Tyrosine-protein kinase JAK1 (Homo sapiens) (UniProt P23458); conditions: Compound concentration 1000.0 nM
Integrin alpha-L = Integrin alpha-L (Homo sapiens, UniProt P20701); experiment: ITGAL binding assay
[25] = molecular target: Calcium-dependent protein kinase 1 (Plasmodium falciparum) (UniProt P62344); conditions: Compound concentration 1000.0 nM
[26] = molecular target: Hormonally up-regulated neu tumor-associated kinase (Homo sapiens) (UniProt P57058); conditions: Compound concentration 1000.0 nM
[27] = molecular target: Beta-adrenergic receptor kinase 1 (Homo sapiens) (UniProt P25098); conditions: Compound concentration 1000.0 nM
[28] = molecular target: Serine/threonine-protein kinase ULK2 (Homo sapiens) (UniProt Q8IYT8); conditions: Compound concentration 1000.0 nM
[29] = molecular target: RAF proto-oncogene serine/threonine-protein kinase (Homo sapiens) (UniProt P04049); conditions: Compound concentration 1000.0 nM
[30] = molecular target: Dual specificity protein kinase CLK4 (Homo sapiens) (UniProt Q9HAZ1); conditions: Compound concentration 1000.0 nM
[31] = molecular target: Mitogen-activated protein kinase 10 (Homo sapiens) (UniProt P53779); conditions: Compound concentration 1000.0 nM
[32] = molecular target: 5-hydroxytryptamine receptor 2C (Homo sapiens) (UniProt P28335); conditions: Compound concentration 10.0 uM
[33] = molecular target: Cyclin-dependent kinase 11B (Homo sapiens) (UniProt P21127); conditions: Compound concentration 1000.0 nM
[34] = molecular target: Tyrosine-protein kinase Srms (Homo sapiens) (UniProt Q9H3Y6); conditions: Compound concentration 1000.0 nM
[35] = molecular target: NUAK family SNF1-like kinase 1 (Homo sapiens) (UniProt O60285); conditions: Compound concentration 1000.0 nM
[36] = molecular target: Cyclin-dependent kinase 3 (Homo sapiens) (UniProt Q00526); conditions: Compound concentration 1000.0 nM
[37] = molecular target: Inhibitor of nuclear factor kappa-B kinase subunit epsilon (Homo sapiens) (UniProt Q14164); conditions: Compound concentration 1000.0 nM
[38] = molecular target: TRAF2 and NCK-interacting protein kinase (Homo sapiens) (UniProt Q9UKE5); conditions: Compound concentration 1000.0 nM
[39] = molecular target: Serine/threonine-protein kinase haspin (Homo sapiens) (UniProt Q8TF76); conditions: Compound concentration 1000.0 nM
[40] = molecular target: Serine/threonine-protein kinase Nek7 (Homo sapiens) (UniProt Q8TDX7); conditions: Compound concentration 1000.0 nM
[41] = molecular target: Serine/threonine-protein kinase BRSK2 (Homo sapiens) (UniProt Q8IWQ3); conditions: Compound concentration 1000.0 nM
[42] = system: Tyrosine-protein kinase ABL1 (Homo sapiens), P00519 [Q252H]; conditions: Compound concentration 1000.0 nM
[43] = molecular target: Mitogen-activated protein kinase kinase kinase 4 (Homo sapiens) (UniProt Q9Y6R4); conditions: Compound concentration 1000.0 nM
[44] = molecular target: Tyrosine-protein kinase Mer (Homo sapiens) (UniProt Q12866); conditions: Compound concentration 1000.0 nM

Sequence of Serine/threonine-protein kinase PLK2 (Homo sapiens) (Q9NYY3 whole entry, looked up): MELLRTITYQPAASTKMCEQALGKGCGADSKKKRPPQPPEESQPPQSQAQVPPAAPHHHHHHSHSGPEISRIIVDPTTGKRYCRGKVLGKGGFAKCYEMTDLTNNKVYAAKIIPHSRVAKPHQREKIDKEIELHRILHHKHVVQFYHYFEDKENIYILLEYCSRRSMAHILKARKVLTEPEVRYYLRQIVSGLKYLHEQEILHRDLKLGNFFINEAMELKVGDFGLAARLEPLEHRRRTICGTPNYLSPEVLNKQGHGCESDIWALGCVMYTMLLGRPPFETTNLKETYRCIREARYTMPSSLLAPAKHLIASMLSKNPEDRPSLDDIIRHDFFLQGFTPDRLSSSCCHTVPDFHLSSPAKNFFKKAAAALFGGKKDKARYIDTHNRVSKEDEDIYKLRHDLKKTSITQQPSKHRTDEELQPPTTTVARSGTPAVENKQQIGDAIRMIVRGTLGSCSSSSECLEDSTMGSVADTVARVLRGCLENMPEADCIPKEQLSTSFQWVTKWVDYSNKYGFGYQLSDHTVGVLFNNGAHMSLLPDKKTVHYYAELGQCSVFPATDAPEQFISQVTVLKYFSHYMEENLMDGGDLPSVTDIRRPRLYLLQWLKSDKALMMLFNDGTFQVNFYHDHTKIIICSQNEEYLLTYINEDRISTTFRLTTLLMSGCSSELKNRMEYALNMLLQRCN
Sequence of NUAK family SNF1-like kinase 1 (Homo sapiens) (O60285 whole entry): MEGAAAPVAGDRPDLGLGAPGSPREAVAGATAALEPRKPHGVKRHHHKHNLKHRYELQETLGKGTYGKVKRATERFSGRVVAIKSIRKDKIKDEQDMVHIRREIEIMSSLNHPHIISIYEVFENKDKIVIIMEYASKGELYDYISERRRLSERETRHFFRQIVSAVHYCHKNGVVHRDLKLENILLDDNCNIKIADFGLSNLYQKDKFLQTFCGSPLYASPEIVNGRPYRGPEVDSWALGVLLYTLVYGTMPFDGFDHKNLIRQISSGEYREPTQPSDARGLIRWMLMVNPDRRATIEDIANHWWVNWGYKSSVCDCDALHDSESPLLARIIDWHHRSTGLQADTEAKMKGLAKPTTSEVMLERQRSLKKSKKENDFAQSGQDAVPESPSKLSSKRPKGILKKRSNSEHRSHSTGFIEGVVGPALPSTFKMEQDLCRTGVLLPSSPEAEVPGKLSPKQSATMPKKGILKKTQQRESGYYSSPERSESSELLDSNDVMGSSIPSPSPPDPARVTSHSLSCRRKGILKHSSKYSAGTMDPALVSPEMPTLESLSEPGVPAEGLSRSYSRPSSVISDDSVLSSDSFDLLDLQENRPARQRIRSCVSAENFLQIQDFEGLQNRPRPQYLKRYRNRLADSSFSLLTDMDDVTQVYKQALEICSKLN
Sequence of Serine/threonine-protein kinase PRP4 homolog (Homo sapiens) (Q13523 whole entry): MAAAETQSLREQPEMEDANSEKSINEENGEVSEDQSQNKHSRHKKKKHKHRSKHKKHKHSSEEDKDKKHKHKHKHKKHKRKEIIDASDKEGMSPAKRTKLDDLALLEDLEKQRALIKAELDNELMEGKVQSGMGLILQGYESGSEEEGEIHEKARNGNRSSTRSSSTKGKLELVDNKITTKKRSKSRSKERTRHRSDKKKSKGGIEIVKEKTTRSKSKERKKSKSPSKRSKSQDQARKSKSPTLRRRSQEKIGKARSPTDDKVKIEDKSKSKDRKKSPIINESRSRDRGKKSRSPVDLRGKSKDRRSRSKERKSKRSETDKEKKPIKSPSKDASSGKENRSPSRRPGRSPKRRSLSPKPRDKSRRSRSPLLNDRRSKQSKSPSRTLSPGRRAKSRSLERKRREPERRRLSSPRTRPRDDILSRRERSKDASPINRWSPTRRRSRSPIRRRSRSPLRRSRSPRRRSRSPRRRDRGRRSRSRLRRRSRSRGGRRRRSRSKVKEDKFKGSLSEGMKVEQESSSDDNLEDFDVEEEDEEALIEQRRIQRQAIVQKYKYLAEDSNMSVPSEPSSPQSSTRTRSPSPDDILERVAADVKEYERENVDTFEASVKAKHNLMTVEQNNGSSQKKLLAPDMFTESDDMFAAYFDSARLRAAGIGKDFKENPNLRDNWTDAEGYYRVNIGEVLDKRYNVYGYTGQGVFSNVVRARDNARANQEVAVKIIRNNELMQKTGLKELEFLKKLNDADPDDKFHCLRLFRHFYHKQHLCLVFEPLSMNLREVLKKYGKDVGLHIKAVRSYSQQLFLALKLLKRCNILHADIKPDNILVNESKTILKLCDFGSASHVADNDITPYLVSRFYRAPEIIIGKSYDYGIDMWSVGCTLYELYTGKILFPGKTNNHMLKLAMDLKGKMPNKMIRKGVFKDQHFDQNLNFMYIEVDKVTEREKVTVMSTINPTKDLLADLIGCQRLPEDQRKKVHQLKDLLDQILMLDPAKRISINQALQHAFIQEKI
Sequence of Vascular endothelial growth factor receptor 1 (Homo sapiens) (P17948 whole entry): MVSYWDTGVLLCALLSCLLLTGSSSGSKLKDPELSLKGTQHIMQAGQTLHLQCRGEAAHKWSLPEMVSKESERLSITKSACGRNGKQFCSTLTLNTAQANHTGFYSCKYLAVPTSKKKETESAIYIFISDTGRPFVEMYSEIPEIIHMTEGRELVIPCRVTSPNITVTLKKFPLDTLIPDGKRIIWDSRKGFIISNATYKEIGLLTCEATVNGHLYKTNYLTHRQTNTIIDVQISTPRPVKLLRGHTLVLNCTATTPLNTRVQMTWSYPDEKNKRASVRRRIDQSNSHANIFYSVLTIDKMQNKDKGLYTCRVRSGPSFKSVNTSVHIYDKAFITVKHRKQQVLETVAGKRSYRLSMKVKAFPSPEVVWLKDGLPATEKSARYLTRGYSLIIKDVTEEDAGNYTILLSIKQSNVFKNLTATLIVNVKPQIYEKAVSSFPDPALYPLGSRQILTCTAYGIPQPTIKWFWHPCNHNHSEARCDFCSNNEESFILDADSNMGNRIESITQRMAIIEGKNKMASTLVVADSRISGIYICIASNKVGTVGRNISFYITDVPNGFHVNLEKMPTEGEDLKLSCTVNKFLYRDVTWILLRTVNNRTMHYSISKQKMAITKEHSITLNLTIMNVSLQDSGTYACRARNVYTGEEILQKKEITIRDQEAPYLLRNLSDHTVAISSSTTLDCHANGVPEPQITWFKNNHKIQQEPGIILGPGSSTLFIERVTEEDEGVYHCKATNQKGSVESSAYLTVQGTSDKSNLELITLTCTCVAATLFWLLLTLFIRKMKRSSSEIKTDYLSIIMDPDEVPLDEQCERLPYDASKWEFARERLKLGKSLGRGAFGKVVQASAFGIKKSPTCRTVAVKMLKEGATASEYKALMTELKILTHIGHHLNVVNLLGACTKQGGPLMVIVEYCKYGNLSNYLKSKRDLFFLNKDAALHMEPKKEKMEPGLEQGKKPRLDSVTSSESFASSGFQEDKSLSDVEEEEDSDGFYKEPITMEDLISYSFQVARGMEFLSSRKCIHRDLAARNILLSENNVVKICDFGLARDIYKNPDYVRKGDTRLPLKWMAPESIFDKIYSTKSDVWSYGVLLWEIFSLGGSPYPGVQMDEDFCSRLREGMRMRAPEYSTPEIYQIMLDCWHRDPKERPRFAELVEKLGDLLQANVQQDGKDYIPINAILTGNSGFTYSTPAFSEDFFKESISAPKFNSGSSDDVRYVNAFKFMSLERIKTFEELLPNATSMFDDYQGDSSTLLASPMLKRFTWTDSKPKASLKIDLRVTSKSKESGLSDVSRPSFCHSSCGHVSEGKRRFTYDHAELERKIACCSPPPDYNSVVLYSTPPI
Sequence of Cyclin-dependent kinase 11B (Homo sapiens) (P21127 whole entry): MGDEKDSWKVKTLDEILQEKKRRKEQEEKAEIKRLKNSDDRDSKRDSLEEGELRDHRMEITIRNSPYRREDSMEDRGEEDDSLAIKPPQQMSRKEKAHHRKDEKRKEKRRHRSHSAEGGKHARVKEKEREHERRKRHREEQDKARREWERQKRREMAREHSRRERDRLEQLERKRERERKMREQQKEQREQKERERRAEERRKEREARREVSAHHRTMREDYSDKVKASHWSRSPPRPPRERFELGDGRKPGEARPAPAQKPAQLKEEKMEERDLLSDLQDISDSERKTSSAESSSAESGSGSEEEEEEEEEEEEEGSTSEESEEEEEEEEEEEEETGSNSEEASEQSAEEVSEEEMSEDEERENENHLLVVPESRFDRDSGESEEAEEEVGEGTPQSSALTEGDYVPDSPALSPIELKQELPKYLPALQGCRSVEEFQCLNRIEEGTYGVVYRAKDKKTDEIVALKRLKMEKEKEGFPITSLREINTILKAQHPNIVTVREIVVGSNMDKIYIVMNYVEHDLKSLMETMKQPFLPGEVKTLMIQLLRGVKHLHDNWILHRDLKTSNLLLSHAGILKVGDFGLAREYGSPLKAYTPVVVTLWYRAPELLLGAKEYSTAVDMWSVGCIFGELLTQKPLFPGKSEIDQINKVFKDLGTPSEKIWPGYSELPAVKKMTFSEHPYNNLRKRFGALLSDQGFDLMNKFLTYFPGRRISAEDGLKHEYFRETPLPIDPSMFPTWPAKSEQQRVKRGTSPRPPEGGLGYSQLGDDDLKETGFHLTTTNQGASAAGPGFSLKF
Sequence of Calcium-dependent protein kinase 1 (Plasmodium falciparum) (P62344 2-524 limits assumed): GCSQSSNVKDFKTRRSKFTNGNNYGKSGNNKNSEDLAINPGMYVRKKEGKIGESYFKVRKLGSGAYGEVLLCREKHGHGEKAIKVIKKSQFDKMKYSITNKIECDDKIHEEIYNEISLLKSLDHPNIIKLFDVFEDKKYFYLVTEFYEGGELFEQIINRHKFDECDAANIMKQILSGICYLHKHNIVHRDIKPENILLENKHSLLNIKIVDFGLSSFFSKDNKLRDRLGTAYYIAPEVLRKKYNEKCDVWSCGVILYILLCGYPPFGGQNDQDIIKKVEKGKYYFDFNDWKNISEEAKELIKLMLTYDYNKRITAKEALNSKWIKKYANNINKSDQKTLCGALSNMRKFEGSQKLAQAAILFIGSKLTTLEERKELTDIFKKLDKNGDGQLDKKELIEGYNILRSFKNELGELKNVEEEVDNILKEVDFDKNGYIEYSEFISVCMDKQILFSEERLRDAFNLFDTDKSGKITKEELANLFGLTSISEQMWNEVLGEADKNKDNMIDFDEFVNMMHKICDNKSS

C[C@H](NC(=O)c1cnc2n1[C@](C)(Cc1ccc(C#N)cc1)C(=O)N2c1cc(Cl)c(F)c(Cl)c1)C(=O)NC1(c2ccccn2)CC1 [BI 1950]
active: Kd (Integrin alpha-L) 9 nM
inactive: residual activity [1] 77% | residual activity [2] 100% | residual activity [3] 75% | residual activity [4] 100% | residual activity [5] 100% | residual activity [6] 100% | residual activity [7] 59% | residual activity [8] 100% | inhibition [9] -3.79% | residual activity [10] 100% | residual activity [11] 100% | residual activity [12] 100% | residual activity [13] 100% | residual activity [14] 91% | residual activity [15] 100% | residual activity [16] 77% | residual activity [17] 100% | residual activity [18] 100% | residual activity [19] 100% | residual activity [20] 92% | residual activity [21] 100% | residual activity [22] 100% | residual activity [23] 100% | residual activity [24] 100% | residual activity [25] 100% | residual activity [26] 100% | residual activity [27] 100% | residual activity [28] 100% | residual activity [29] 100% | residual activity [30] 88% | residual activity [31] 91% | inhibition [32] 24.3% | residual activity [33] 100% | residual activity [34] 100% | residual activity [35] 99% | residual activity [36] 100% | residual activity [37] 89% | residual activity [38] 100% | residual activity [39] 100% | residual activity [40] 100% | residual activity [41] 100% | residual activity [42] 90% | residual activity [43] 97% | residual activity [44] 99%

C[C@@]1(Cc2ccc(C#N)cc2)C(=O)N(c2cc(Cl)cc(Cl)c2)c2ncc(C(=O)NC3(c4nc(C5CCC5)no4)CC3)n21 [BI 9446]
active: residual activity [1] 40% | residual activity [13] 12%
> 1000 nM (not active): Kd (Integrin alpha-L)
inactive: residual activity [2] 97% | residual activity [3] 98% | residual activity [4] 100% | residual activity [5] 100% | residual activity [6] 100% | residual activity [7] 97% | residual activity [8] 92% | inhibition [9] 15% | residual activity [10] 100% | residual activity [11] 100% | residual activity [12] 100% | residual activity [14] 98% | residual activity [15] 99% | residual activity [16] 91% | residual activity [17] 100% | residual activity [18] 100% | residual activity [19] 100% | residual activity [20] 64% | residual activity [21] 89% | residual activity [22] 81% | residual activity [23] 100% | residual activity [24] 100% | residual activity [25] 100% | residual activity [26] 100% | residual activity [27] 100% | residual activity [28] 100% | residual activity [29] 100% | residual activity [30] 97% | residual activity [31] 100% | inhibition [32] 32.9% | residual activity [33] 100% | residual activity [34] 100% | residual activity [35] 100% | residual activity [36] 100% | residual activity [37] 80% | residual activity [38] 100% | residual activity [39] 100% | residual activity [40] 100% | residual activity [41] 100% | residual activity [42] 89% | residual activity [43] 100% | residual activity [44] 100%
